Data as given in US11693017B2, “Small molecule biosensors” (President and Fellows of Harvard College, priority 2015, dated 2023).

Assays:
[1] = tested on: DIG-Cas9 fusion in K562 cell line containing a broken EGFP; experiment: TF-biosensor-Cas9 assay (EGFP repair); format: cell-based, human; conditions: 48-hour incubation
Experimental: Construct integration was carried out as for the Cas9 experiments for EGFP assays, except that the constructs were integrated into K562 containing a broken EGFP reporter construct. Introduction of an engineered nuclease along with a donor oligonucleotide can correct the EGFP and produce fluorescent cells. Upon successful integration (˜10 days after initial transfection), 500,000 cells were nucleofected with 500 ng of guide RNA (sgRNA) and 2 μg of donor oligonucleotide. Nucleofected cells were then collected with 200 μL of media and 50 μL aliquots were added to wells containing 950 μL of media. Each nucleofection was split into four separate wells containing 1 μM of digoxigenin, 25 μM of progesterone, or no small molecule. Forty-eight hours later, cells were analyzed using flow cytometry and the percentage of EGFP positive cells was determined.

[2] = tested on: G-DIG1-V-Matα2 biosensor with pUAS::Luc in transgenic Arabidopsis plants; experiment: TF-biosensor assays in transgenic Arabidopsis plants; format: in vivo, Arabidopsis thaliana
Experimental: Transgenic plants expressing the digoxin biosensor genetic circuit were tested for digoxigenin-induced luciferase expression by placing 14-16 day old plants in liquid MS (-sucrose) media supplemented with 0.1 mM digoxigenin in 24-well plates, and incubated in a growth chamber at 24° C., […] light.
Luciferase expression was measured by imaging plants with a Stanford Photonics XR/MEGA-10 ICCD Camera, after spraying luciferin and dark adapting plants for 30 minutes. Luciferase expression was quantified using Piper Control (v.2.6.17) software. Plants from line KJM58-10 were used to test for specificity of induction by incubating plants, as described above, in 0.1 mM digoxigenin, 0.1 mM digitoxigenin, and 0.02 mM β-estradiol. All chemicals were obtained from Sigma-Aldrich (St. Louis, Mo.).

[3] = tested on: LexA-based TF-biosensors with DIG1 and B42; experiment: Luciferase reporter assay in yeast with LexA-based TF-biosensor; format: cell-based, Saccharomyces cerevisiae; conditions: reporter promoter containing LexA-binding sites
Experimental: Yeast strains containing either a plasmid-borne or integrated luciferase reporter were transformed with p16C plasmids encoding TF-biosensors. Transformants were grown in triplicate overnight at 30° C. in SD-ura media containing 2% glucose in sterile glass test tubes on a roller drum. After ˜16 hours of growth, OD600 of each sample was measured and cultures were back diluted to OD600=0.2 in fresh SD-ura media containing steroid dissolved in DMSO or a DMSO control (1% DMSO final). Cultures were grown at 30° C. on roller drum for 8 hrs prior to taking readings. Measurement of luciferase activity was adapted from a previously reported protocol^58. 100 uL of each culture was transferred to a 96-well white NUNC plate. 100 uL of 2 mM D-luciferin in 0.1 M sodium citrate (pH 4.5) was added to each well of the plate and luminescence was measured on a Victor 3V after 5 minutes.

[4] = molecular target: DIG10.3 (DIG0); conditions: cited from earlier work
[5] = tested on: degron-G-PRO1-V in HIS3 reporter strain PJ69-4a; experiment: Yeast spotting (HIS3 growth) assay; format: cell-based, Saccharomyces cerevisiae; conditions: -his media
Experimental: Yeast strain PJ69-4a transformed with p16C plasmids containing degron G-DIG-V variants were first inoculated from colonies into SD-ura media and grown at 30° C. overnight (16 h). 1 mL of each culture was pelleted by centrifugation (3000 rcf, 2 min), resuspended in 1 mL of fresh SD-ura and the OD660 was measured. Each culture was then diluted in SD-ura media to an OD660=0.2 and incubated at 30° C. for 4-6 hrs. 1 mL of each culture was pelleted and resuspended in sterile, distilled water and the OD660 measured again. Each transformant was then diluted to an OD660=0.1. Four 1/10 serial dilutions of each culture were prepared in sterile water (for a total of 5 solutions). 10 μL of each dilution was spotted in series onto several SD-ura-his agar plates containing 1 mM 3-aminotriazole and the indicated steroid.

[6] = molecular target: PRO0; conditions: cited from earlier work

Compound: C[C@]12CC[C@H](O)C[C@H]1CC[C@@H]1[C@@H]2C[C@@H](O)[C@]2(C)[C@@H](C3=CC(=O)OC3)CC[C@]12O [digoxigenin]
- increase in GFP positive cells relative to the mock control [1]: ~18 fold
- induction of luciferase activity compared to the uninduced control ([2]; after 42 hours, T1 transgenic plants): 30-50 fold

Compound: C[C@H]1O[C@@H](O[C@H]2[C@@H](O)C[C@H](O[C@H]3[C@@H](O)C[C@H](O[C@H]4CC[C@@]5(C)[C@H](CC[C@@H]6[C@@H]5C[C@@H](O)[C@]5(C)[C@@H](C7=CC(=O)OC7)CC[C@]65O)C4)O[C@@H]3C)O[C@@H]2C)C[C@H](O)[C@@H]1O [digoxin]
- induction of the biosensor ([2]; transgenic Arabidopsis plants): capable of inducing
- activation in the presence of digoxin [3]: ~40 fold
- affinity of binding to DIG10.3 (DIG0) [4]: picomolar

Compound: CC(=O)[C@H]1CC[C@H]2[C@@H]3CC=C4C[C@@H](O)CC[C@]4(C)[C@H]3CC[C@]12C [pregnenolone]
- growth of histidine auxotrophic reporter strain [5]: not

Compound: CC(=O)[C@H]1CC[C@H]2[C@@H]3CCC4=CC(=O)CC[C@]4(C)[C@H]3CC[C@]12C [progesterone]
- growth of histidine auxotrophic reporter strain [5]: stimulated
- affinity of binding to PRO0 [6]: nanomolar
